Legend:
[1] = molecular target: T1, recombinant human ALK5 (TGF-βR1) protein (Homo sapiens, UniProt P36897); experiment: Biochemical ALK5 (TGF-βR1) assay to measure pKi (LANCE Ultra ULight kinase assay); details: apparent pKi, converted from pIC50 by Cheng-Prusoff
T1 construct: purchased Life Technologies PR9075A
T1 sequence (P36897 34-503): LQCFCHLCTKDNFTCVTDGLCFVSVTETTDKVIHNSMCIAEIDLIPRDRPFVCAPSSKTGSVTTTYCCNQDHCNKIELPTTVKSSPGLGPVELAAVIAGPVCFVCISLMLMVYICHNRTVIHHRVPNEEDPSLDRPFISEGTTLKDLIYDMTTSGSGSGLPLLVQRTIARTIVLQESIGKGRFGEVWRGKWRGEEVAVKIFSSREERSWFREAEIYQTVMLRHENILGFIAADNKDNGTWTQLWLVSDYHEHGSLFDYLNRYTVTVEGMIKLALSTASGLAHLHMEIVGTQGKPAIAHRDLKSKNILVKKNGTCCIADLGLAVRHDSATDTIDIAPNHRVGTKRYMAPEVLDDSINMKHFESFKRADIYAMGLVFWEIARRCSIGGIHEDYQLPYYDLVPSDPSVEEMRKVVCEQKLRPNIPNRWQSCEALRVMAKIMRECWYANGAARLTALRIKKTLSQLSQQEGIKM
Method in brief: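 Europium TR-FRET kinase assay: the enzyme is exposed to compound for 60 min at room temperature, and reaction with ATP runs 60 min at 37 °C. Percent inhibition relative to DMSO and SD-208 controls gives pIC50, which is converted to pKi.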

[2] = tested on: TGF-β-stimulated SMAD3 phosphorylation in BEAS-2B cells; experiment: Cellular ALK5 potency assay, inhibition of TGF-β stimulated pSMAD3 formation in BEAS-2B cells; format: cell-based; details: Homo sapiens, pSMAD3, TGF-β 10 ng/mL, read-out: BEAS2B pIC50 (converted)
Method in brief: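 Read-out is AlphaLISA detection of phospho-SMAD3 in lysates of BEAS-2B human lung epithelial cells. Cells are exposed to compound for 1 hour, then to 10 ng/mL TGF-β (final) for 30 minutes. Values are pIC50 from concentration–response curves.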

| SMILES | Ki [1] [nM] | IC50 [2] [nM] |
| --- | --- | --- |
| Cc1cccc(-c2nccc(Nc3ccnc(Nc4nc(CN5CCC[C@@H](C(=O)O[C@@H]6CCN(C)C6)C5)cs4)n3)n2)n1 [Compound 460, [(3R)-1-methylpyrrolidin-3-yl] (3R)-1-[[2-[[4-[[2-(6-methyl-2-pyridyl)pyrimidin-4-yl]amino]pyrimidin-2-yl]amino]thiazol-4-yl]methyl]piperidine-3-carboxylate] | 0.0398 to 0.316 | 25.1 to 158 |
| Cc1cccc(-c2nccc(Nc3ccnc(Nc4ccc(F)c(CN5CCSCC5)c4)n3)n2)n1 [Compound 461, N2-[4-fluoro-3-(thiomorpholinomethyl)phenyl]-N4-[2-(6-methyl-2-pyridyl)pyrimidin-4-yl]pyrimidine-2,4-diamine] | 0.398 to 3.16 | 25.1 to 158 |
| CC[C@H](C)OC(=O)Cc1cc(Nc2nccc(Nc3ccnc(-c4cccc(C)n4)n3)n2)ccc1N1CCNCC1 [Compound 466, [(1S)-1-methylpropyl] 2-[5-[[4-[[2-(6-methyl-2-pyridyl)pyrimidin-4-yl]amino]pyrimidin-2-yl]amino]-2-piperazin-1-yl-phenyl]acetate] | 0.0398 to 0.316 | 25.1 to 158 |
| Cc1cccc(-c2nccc(Nc3ccnc(Nc4nc(CN(C)C5CNC5)cs4)n3)n2)n1 [Compound 467, N2-[4-[[azetidin-3-yl(methyl)amino]methyl]thiazol-2-yl]-N4-[2-(6-methyl-2-pyridyl)pyrimidin-4-yl]pyrimidine-2,4-diamine] | 0.398 to 3.16 | 25.1 to 158 |
| Cc1cccc(-c2nccc(Nc3ccnc(Nc4ccc(-c5c(C)noc5C)cc4)n3)n2)n1 [Compound 469, N2-[4-(3,5-dimethylisoxazol-4-yl)phenyl]-N4-[2-(6-methyl-2-pyridyl)pyrimidin-4-yl]pyrimidine-2,4-diamine] | 0.398 to 3.16 | 25.1 to 158 |
| Cc1cccc(-c2nccc(Nc3ccnc(Nc4ccc(CN5[C@H](C)CNC[C@@H]5C)cc4)n3)n2)n1 [Compound 470, N2-[4-[[(2R,6S)-2,6-dimethylpiperazin-1-yl]methyl]phenyl]-N4-[2-(6-methyl-2-pyridyl)pyrimidin-4-yl]pyrimidine-2,4-diamine] | 0.0398 to 0.316 | 25.1 to 158 |

Second part, led by results:

| Ki [1] [nM] | SMILES | IC50 [2] [nM] |
| --- | --- | --- |
| 0.398 to 3.16 | Cc1cccc(-c2nccc(Nc3ccnc(Nc4cccc(C(=O)O[C@@H]5CCNC5)c4)n3)n2)n1 [Compound 459, [(3R)-pyrrolidin-3-yl] 3-[[4-[[2-(6-methyl-2-pyridyl)pyrimidin-4-yl]amino]pyrimidin-2-yl]amino]benzoate] | 25.1 to 158 |
| 0.0398 to 0.316 | COC(=O)CC1CNCCN1c1ccc(Nc2nccc(Nc3ccnc(-c4cccc(C)n4)n3)n2)cc1 (stereo not shown) [Compound 462, methyl 2-[1-[4-[[4-[[2-(6-methyl-2-pyridyl)pyrimidin-4-yl]amino]pyrimidin-2-yl]amino]phenyl]piperazin-2-yl]acetate] | 25.1 to 158 |
| 0.0398 to 0.316 | Cc1cccc(-c2nccc(Nc3ccnc(Nc4ccc(CN5CCN[C@H](CO)C5)cc4)n3)n2)n1 [Compound 463, [(2S)-4-[[4-[[4-[[2-(6-methyl-2-pyridyl)pyrimidin-4-yl]amino]pyrimidin-2-yl]amino]phenyl]methyl]piperazin-2-yl]methanol] | 25.1 to 158 |
| 0.0398 to 0.316 | Cc1cccc(-c2nccc(Nc3ccnc(Nc4ccc(C(=O)O[C@@H]5CCN(C)C5)cc4)n3)n2)n1 [Compound 464, [(3R)-1-methylpyrrolidin-3-yl] 4-[[4-[[2-(6-methyl-2-pyridyl)pyrimidin-4-yl]amino]pyrimidin-2-yl]amino]benzoate] | 25.1 to 158 |
| 0.0398 to 0.316 | Cc1cccc(-c2nccc(Nc3ccnc(Nc4ccc(NC(=O)C5CCN(C6CCNC6)CC5)cc4)n3)n2)n1 (stereo not shown) [Compound 465, N-[4-[[4-[[2-(6-methyl-2-pyridyl)pyrimidin-4-yl]amino]pyrimidin-2-yl]amino]phenyl]-1-pyrrolidin-3-yl-piperidine-4-carboxamide] | ≤ 20 |

Source: US20230399312A1, “SUBSTITUTED PYRIMIDINES AND METHODS OF USE” (THERAVANCE BIOPHARMA R&D IP, LLC, priority 2020, published 2023)
